Reference: publication PMC10714399, “Open Source Antibiotics: Simple Diarylimidazoles Are Potent against Methicillin-Resistant Staphylococcus aureus” (ACS Infectious Diseases, 2023)

How the values were obtained:
[1] = Distribution coefficient estimation using chromatography, gLogD (Monash); assay type: physicochemical; conditions: gradient HPLC retention against standard compounds, pH 7.4
Description: Partition coefficient values (LogD) of the test compounds were estimated at pH 7.4 by the correlation of their chromatographic retention properties against the characteristics of a series of standard compounds with known partition coefficient values. The method employed is a gradient HPLC-based derivation of the method developed by Lombardo.[42] […]
c) Distribution Coefficient Estimation using Chromatography (gLogDpH)
Partition coefficient values (LogD) of the test compounds were estimated at pH 7.4 by correlation of their
chromatographic retention properties against the characteristics of a series of standard compounds with known
partition coefficient values. […]
In Vitro Intrinsic Clearance […]
Experimental results are tabulated on the following page(s).
(1 picture or pasted object on this page, not shown here)

[2] = Mouse liver microsome (MLM) metabolic stability (UNC); assay type: in vitro ADME
Description: Supplement id3c00286_si_002.xlsx, sheet "Series 2 Data" | column: MLM Clint (mL/min/kg) (UNC); MLM t1/2 (min) (UNC); MLM E (UNC)

LogD7.4 (Chrom Log D) = assay type: physicochemical; conditions: chromatographic system (Chrom Log D); pH 7.4, NEU; read-out: LogD 7.4 (NEU)

| chromatographic logD [1] | MLM E (UNC) ([2]; mouse liver microsomes) | CLint scaled ([2]; mouse, liver microsomes) | half-life ([2]; mouse, liver microsomes, read-out: MLM t1/2 (UNC)) | chromatographic logD (LogD7.4 (Chrom Log D)) | SMILES |
| --- | --- | --- | --- | --- | --- |
| 2.3 | 0.929 | 1170 mL/min/kg | 4.8 min |  | c1ccc(-c2nc3n(c2-c2ccc4sccc4c2)CCC3)nc1 [OSA_000822] |
|  |  |  |  | 2.7 | c1ccc(-c2nc3n(c2-c2ccc4occc4c2)CCC3)nc1 [compound 821] |
